Results as given in patent US10456385B2 (priority 2011, dated 2019).

System: Male ICR mice
Assay: Novel Object Recognition Test (NORT) in MK-801-induced amnesia mice
Type: in vivo
Conditions: Mus musculus, po, unit mg/kg from method, read-out: MED (dose at which NORT relative RI is given)

Compound	minimal effective dose [mg/kg]
O=C(NC1CN2CCC1CC2)c1ccc(=O)n(-c2nccs2)c1 (centres unmarked) [Example 1, N-(1-azabicyclo[2.2.2]octan-3-yl)-6-oxo-1-(2-thiazolyl)-3-pyridinecarboxamide]	0.03
O=C(N[C@H]1CN2CCC1CC2)c1ccc(=O)n(-c2nccs2)c1 [Example 2, N-[(3R)-1-azabicyclo[2.2.2]octan-3-yl)-6-oxo-1-(2-thiazolyl)-3-pyridinecarboxamide]	0.01
Cc1cnc(-n2cc(C(=O)NC3CN4CCC3CC4)ccc2=O)s1 (centres unmarked) [Example 10, N-(1-azabicyclo[2.2.2]octan-3-yl)-1-(5-methyl-2-thiazolyl)-6-oxo-3-pyridinecarboxamide]	0.3
Cc1cnc(-n2cc(C(=O)N[C@H]3CN4CCC3CC4)ccc2=O)s1 [Example 11, N-[(3R)-1-azabicyclo[2.2.2]octan-3-yl]-1-(5-methyl-2-thiazolyl)-6-oxo-3-pyridinecarboxamide]	0.03
CCc1cnc(-n2cc(C(=O)NC3CN4CCC3CC4)ccc2=O)s1 (centres unmarked) [Example 13, N-(1-azabicyclo[2.2.2]octan-3-yl)-1-(5-ethyl-2-thiazolyl)-6-oxo-3-pyridinecarboxamide]	0.3
CCc1cnc(-n2cc(C(=O)N[C@H]3CN4CCC3CC4)ccc2=O)s1 [Example 14, N-[(3R)-1-azabicyclo[2.2.2]octan-3-yl]-1-(5-ethyl-2-thiazolyl)-6-oxo-3-pyridinecarboxamide]	0.03
CC(C)c1cnc(-n2cc(C(=O)NC3CN4CCC3CC4)ccc2=O)s1 (centres unmarked) [Example 17, N-(1-azabicyclo[2.2.2]octan-3-yl)-6-oxo-1-(5-propan-2-yl-2-thiazolyl)-3-pyridinecarboxamide]	0.3
CC(C)(C)c1cnc(-n2cc(C(=O)NC3CN4CCC3CC4)ccc2=O)s1 (centres unmarked) [Example 20, N-(1-azabicyclo[2.2.2]octan-3-yl)-1-(5-tert-butyl-2-thiazolyl)-6-oxo-3-pyridinecarboxamide]	0.3
O=C(NC1CN2CCC1CC2)c1ccc(=O)n(-c2ncc(C3CCCCC3)s2)c1 (centres unmarked) [Example 24, N-(1-azabicyclo[2.2.2]octan-3-yl)-1-(5-cyclohexyl-2-thiazolyl)-6-oxo-3-pyridinecarboxamide]	0.03
O=C(NC1CN2CCC1CC2)c1ccc(=O)n(-c2ncc(Cl)s2)c1 (centres unmarked) [Example 26, N-(1-azabicyclo[2.2.2]octan-3-yl)-1-(5-chloro-2-thiazolyl)-6-oxo-3-pyridinecarboxamide]	0.3
O=C(NC1CN2CCC1CC2)c1ccc(=O)n(-c2nc3ccccc3s2)c1 (centres unmarked) [Example 33, N-(1-azabicyclo[2.2.2]octan-3-yl)-1-(1,3-benzothiazole-2-yl)-6-oxo-3-pyridinecarboxamide]	0.01
